Biological target: T1, human M1 receptor (hCHRM1) (Homo sapiens, UniProt P11229)
T1 construct: expressed in transfected cells
T1 sequence (P11229 1-460): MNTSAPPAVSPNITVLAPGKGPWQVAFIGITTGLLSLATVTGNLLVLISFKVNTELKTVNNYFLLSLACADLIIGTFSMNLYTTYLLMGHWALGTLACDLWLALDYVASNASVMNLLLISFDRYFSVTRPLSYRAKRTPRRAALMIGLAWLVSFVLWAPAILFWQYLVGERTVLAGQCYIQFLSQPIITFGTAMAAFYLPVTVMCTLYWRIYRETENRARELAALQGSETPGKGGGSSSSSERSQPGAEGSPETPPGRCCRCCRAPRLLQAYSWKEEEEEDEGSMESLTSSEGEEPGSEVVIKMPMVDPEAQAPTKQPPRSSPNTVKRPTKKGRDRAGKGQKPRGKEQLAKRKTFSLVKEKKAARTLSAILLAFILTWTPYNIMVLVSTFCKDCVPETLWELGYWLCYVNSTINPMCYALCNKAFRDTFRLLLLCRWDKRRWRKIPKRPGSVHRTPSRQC
Assay: Measurement of M1 receptor positive allosteric modulator (M1PAM) activity, calcium fluorescence in CHO-K1 cells;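 as to EC50: potency reported as IP value in nM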
Assay type: cell-based
Conditions: for activity (%) at 10 μM: 10 μM test compound with acetylcholine at EC20, 100% = acetylcholine 1 μM, 0% = DMSO; for EC50: inflection point in the concentration-dependent curve, acetylcholine at EC20 (final 0.6-0.8 nM), CHO-K1 cells expressing human M1, Fluo-4, FLIPRtetra, read-out: IP value
Method: Measurement of M1 Receptor Positive Allosteric Modulator (M1PAM) Activity
The activity of a test compound in the presence of acetylcholine at EC20 concentration (final concentration 0.6-0.8 nM), which affords an action corresponding to about 20% of the maximum activity, was measured as PAM activity. The method is as follows. CHO-K1 cells stably expressing a human M1 receptor (hCHRM1) were plated on a 384-well black clear bottom plate (BD Falcon) at 5,000 cells/well, and cultured in an incubator at 37° C., 5% CO2 for 1 day. The medium in the cell plate was removed, and assay buffer A containing calcium indicator (Recording medium (DOJINDO LABORATORIES), 0.1% BSA (Wako Pure Chemical Industries, Ltd.), 2.5 μg/mL Fluo-4 AM (DOJINDO LABORATORIES), 0.08% Pluronic F127 (DOJINDO LABORATORIES), 1.25 mM probenecid (DOJINDO LABORATORIES)) was added at 30 μL/well. The cells were left standing in the incubator at 37° C., 5% CO2 for 30 min, and further left standing at room temperature for 30 min. A test compound prepared by diluting with assay buffer B (HBSS (Invitrogen), 20 mM HEPES (Invitrogen), 0.1% BSA) containing 2.4-3.2 nM acetylcholine was added at 10 μL/well, and the fluorescence was measured by FLIPRtetra (Molecular Devices) for 1 min every 1 second. With the definition that the amount of change in the fluorescence on addition of acetylcholine (final concentration 1 μM) is 100% and that on addition of DMSO instead of a test compound is 0%, the activity (%) of the test compound was calculated, and the inflection point in the concentration-dependent curve of the test compound was calculated as IP values.

Compound	activity (%) at 10 μM [%]	EC50 [nM]
CCC(F)(F)COc1nccc2c1C(=O)N(Cc1ccc(-c3cnn(C)c3)cc1F)C2 [Example 92, 4-(2,2-difluorobutoxy)-2-(2-fluoro-4-(1-methyl-1H-pyrazol-4-yl)benzyl)-1,2-dihydro-3H-pyrrolo[3,4-c]pyridin-3-one]	94	15
CCC(F)(F)COc1nccc2c1C(=O)N(Cc1ccc(-c3cnnc(C)c3)cc1)C2 [Example 19, 4-(2,2-difluorobutoxy)-2-(4-(6-methylpyridazin-4-yl)benzyl)-1,2-dihydro-3H-pyrrolo[3,4-c]pyridin-3-one]	98	240
CCC(F)(F)COc1nccc2c1C(=O)N(Cc1ccc(-c3cn[nH]c3)cc1)C2 [Example 72, 4-(2,2-difluorobutoxy)-2-(4-(1H-pyrazol-4-yl)benzyl)-1,2-dihydro-3H-pyrrolo[3,4-c]pyridin-3-one]	90	59
CCn1cc(-c2ccc(CN3Cc4ccnc(OCC(F)F)c4C3=O)c(F)c2)cn1 [Example 58, 4-(2,2-difluoroethoxy)-2-(4-(1-ethyl-1H-pyrazol-4-yl)-2-fluorobenzyl)-1,2-dihydro-3H-pyrrolo[3,4-c]pyridin-3-one]	104	35
Cn1cc(-c2ccc(CN3Cc4ccnc(OCC(F)F)c4C3=O)c(F)c2)nn1 [Example 115, 4-(2,2-difluoroethoxy)-2-(2-fluoro-4-(1-methyl-1H-1,2,3-triazol-4-yl)benzyl)-1,2-dihydro-3H-pyrrolo[3,4-c]pyridin-3-one]	98	43
Cc1nn(C)cc1-c1ccc(CN2Cc3ccnc(OCC(F)(F)C(F)F)c3C2=O)cc1 [Example 18, 2-(4-(1,3-dimethyl-1H-pyrazol-4-yl)benzyl)-4-(2,2,3,3-tetrafluoropropoxy)-1,2-dihydro-3H-pyrrolo[3,4-c]pyridin-3-one]	102	280
CCn1cc(-c2ccc(CN3Cc4ncnc(OCC(F)(F)F)c4C3=O)cc2)cn1 [Example 37, 6-(4-(1-ethyl-1H-pyrazol-4-yl)benzyl)-4-(2,2,2-trifluoroethoxy)-6,7-dihydro-5H-pyrrolo[3,4-d]pyrimidin-5-one]	98	46
CCn1cc(-c2ccc(CN3Cc4ncnc(OCC(F)(F)F)c4C3=O)c(F)c2)cn1 [Example 35, 6-(4-(1-ethyl-1H-pyrazol-4-yl)-2-fluorobenzyl)-4-(2,2,2-trifluoroethoxy)-6,7-dihydro-5H-pyrrolo[3,4-d]pyrimidin-5-one]	98	27
CCC(F)(F)COc1ncnc2c1C(=O)N(Cc1ccc(-c3cn(C)nc3C)cc1F)C2 [Example 74, 4-(2,2-difluorobutoxy)-6-(4-(1,3-dimethyl-1H-pyrazol-4-yl)-2-fluorobenzyl)-6,7-dihydro-5H-pyrrolo[3,4-d]pyrimidin-5-one]	101	8.7
CCn1cc(-c2ccc(CN3Cc4ncnc(OCC(C)(C)F)c4C3=O)cc2)cn1 [Example 45, 6-(4-(1-ethyl-1H-pyrazol-4-yl)benzyl)-4-(2-fluoro-2-methylpropoxy)-6,7-dihydro-5H-pyrrolo[3,4-d]pyrimidin-5-one]	87	10
Cn1cc2cc(-c3ccc(CN4Cc5ccnc(OCC(C)(F)F)c5C4=O)cc3)ccc2n1 [Example 14, 4-(2,2-difluoropropoxy)-2-(4-(2-methyl-2H-indazol-5-yl)benzyl)-1,2-dihydro-3H-pyrrolo[3,4-c]pyridin-3-one]	88	51
Cc1nn(C)cc1-c1ccc(CN2Cc3ccnc(OCC(C)(C)F)c3C2=O)c(F)c1 [Example 82, 2-(4-(1,3-dimethyl-1H-pyrazol-4-yl)-2-fluorobenzyl)-4-(2-fluoro-2-methylpropoxy)-1,2-dihydro-3H-pyrrolo[3,4-c]pyridin-3-one]	95	17
CCC(F)(F)COc1nccc2c1C(=O)N(Cc1ccc(-c3ccn(C)n3)cc1F)C2 [Example 97, 4-(2,2-difluorobutoxy)-2-(2-fluoro-4-(1-methyl-1H-pyrazol-3-yl)benzyl)-1,2-dihydro-3H-pyrrolo[3,4-c]pyridin-3-one]	104	77
Cc1nn(C)cc1-c1ccc(CN2Cc3ccnc(OCC(F)F)c3C2=O)c(F)c1 [Example 112, 4-(2,2-difluoroethoxy)-2-(4-(1,3-dimethyl-1H-pyrazol-4-yl)-2-fluorobenzyl)-1,2-dihydro-3H-pyrrolo[3,4-c]pyridin-3-one]	101	41
Cn1cc(-c2ccc(CN3Cc4ncnc(OCC(F)(F)F)c4C3=O)cc2)nn1 [Example 104, 6-(4-(1-methyl-1H-1,2,3-triazol-4-yl)benzyl)-4-(2,2,2-trifluoroethoxy)-6,7-dihydro-5H-pyrrolo[3,4-d]pyrimidin-5-one]	95	61
Cc1nn(C)cc1-c1ccc(CN2Cc3ncnc(OCC(F)F)c3C2=O)cc1 [Example 42, 4-(2,2-difluoroethoxy)-6-(4-(1,3-dimethyl-1H-pyrazol-4-yl)benzyl)-6,7-dihydro-5H-pyrrolo[3,4-d]pyrimidin-5-one]	106	23
Cn1cc(-c2ccc(CN3Cc4ccnc(OCC(F)(F)F)c4C3=O)c(F)c2)nn1 [Example 114, 2-(2-fluoro-4-(1-methyl-1H-1,2,3-triazol-4-yl)benzyl)-4-(2,2,2-trifluoroethoxy)-1,2-dihydro-3H-pyrrolo[3,4-c]pyridin-3-one]	102	56
Cn1cc(-c2ccc(CN3Cc4ccnc(OCC(C)(F)F)c4C3=O)c(F)c2)cn1 [Example 86, 4-(2,2-difluoropropoxy)-2-(2-fluoro-4-(1-methyl-1H-pyrazol-4-yl)benzyl)-1,2-dihydro-3H-pyrrolo[3,4-c]pyridin-3-one]	91	21
CCC(F)(F)COc1nccc2c1C(=O)N(Cc1ccc(-c3cn(C)nc3C)cc1F)C2 [Example 7, 4-(2,2-difluorobutoxy)-2-(4-(1,3-dimethyl-1H-pyrazol-4-yl)-2-fluorobenzyl)-1,2-dihydro-3H-pyrrolo[3,4-c]pyridin-3-one]	90	9.1
CCC(F)(F)COc1nccc2c1C(=O)N(Cc1ccc(-c3cnn(CC(F)(F)F)c3)cc1F)C2 [Example 62, 4-(2,2-difluorobutoxy)-2-(2-fluoro-4-(1-(2,2,2-trifluoroethyl)-1H-pyrazol-4-yl)benzyl)-1,2-dihydro-3H-pyrrolo[3,4-c]pyridin-3-one]	91	40
CCn1cc(-c2ccc(CN3Cc4ncnc(OCC(C)(C)F)c4C3=O)c(F)c2)cn1 [Example 44, 6-(4-(1-ethyl-1H-pyrazol-4-yl)-2-fluorobenzyl)-4-(2-fluoro-2-methylpropoxy)-6,7-dihydro-5H-pyrrolo[3,4-d]pyrimidin-5-one]	86	6.7
Cc1cc(-c2ccc(CN3Cc4ncnc(OCC(F)(F)F)c4C3=O)cc2)ccn1 [Example 11, 6-(4-(2-methylpyridin-4-yl)benzyl)-4-(2,2,2-trifluoroethoxy)-6,7-dihydro-5H-pyrrolo[3,4-d]pyrimidin-5-one]	87	23

From patent US10208046B2, “Nitrogen-containing heterocyclic compound” (Takeda Pharmaceutical Company Limited, priority 2014, dated 2019)
